{
  "source": "patent US20080081039A1",
  "about": "“Inorganic Selenium For Treatment Of Cancer” (priority 2004, published 2008)",
  "key": {"[1]": {"tested_on": "DU145 prostate cancer cells", "details": "cited from earlier work"}, "Akt": {"tested_on": "Akt", "assay": "Activation of Akt by different selenium compounds in PC-3 cells, immunoblot", "type": "cell-based, human", "details": "125 μM, 6 hours, serum starved PC-3 cells", "from_the_text": "Signal intensities from the developed films were scanned and intensities of active Akt correlated to total Akt levels were plotted."}, "[2]": {"tested_on": "cell cycle regulatory proteins (cyclin D1, cdk4, cdk6, p27KIP1, p21CIP1)", "assay": "Immunoblot of cell cycle regulatory proteins in PC-3 cells", "type": "cell-based, human", "details": "0.5 mM, compared to control (0 hours), FIG. 3C", "from_the_text": "The following antibodies were obtained from Cell Signaling Technology (Beverly, Mass., USA) unless otherwise stated: anti-p27^KIP1 (bd Pharmingen), anti-p21^CIP1 , ANTI-CYCLIN d1, ANTI-CYCLIN d3, ANTI-CDK4, ANTI-CDK6, ANTI-PHOSPHO rb (Ser807/811), anti-RB, anti-phospho Akt (Ser473), anti-phospho Akt (Thre308), anti-Akt, anti-phospho PDK1 (Ser241), anti-phospho PDK1 (Tyr373/376), anti-phospho GSK-3β, anti-phospho mTOR (Ser2448), anti-mTOR, anti-βIII tubulin (Promega).\nTo determine the effect of selenate on the phosphorylation of proteins involved in the PI3K/Akt signaling cascade, 5×10^5 PC-3 cells were allowed to attach for 10 hours. […] Cells were lysed in ELB (250 mM NaCl, 50 mM HEPES pH 7.0, 5 mM EDTA, 0.5 mM DTT, 0.2% TX100, 20 mM sodium fluoride, 2 mM sodium pervanadate, Complete Protease Inhibitor Cocktail (Roche)). Lysates were centrifuged for 15 minutes at 4° C. Protein concentration was determined using the BCA system (Sigma) and equal amounts of protein were loaded into each lane of a SDS-polyacrylamide gel. The proteins were transferred onto PVDF (Millipore) membranes and detected with anti-mouse or anti-rabbit secondary antibodies couples to horseradish peroxidase (HRP) and chemiluminescence using the SuperSignal West Dura (Pierce). Membranes were stripped using the Restore Western Blot Stripping Buffer (Pierce)."}, "GFP-FKHR fusion protein": {"tested_on": "GFP-FKHR fusion protein", "assay": "GFP-FKHR cellular localization in transfected PC-3 cells", "type": "cell-based, human", "details": "LY294002 50 μM 1 hour; sodium selenate or selenomethionine 0.5 mM 3 hours", "method": "The day before transfection, 5×10^5 PC-3 cells were seeded in 24-well dishes and transiently transfected with 0.8 μg of pcDNA3-GFP-FKHRwt construct (kind gift Dr Bill Sellers, Dana-Farber Institute, Boston) using Lipofectamine 2000 (Invitrogen). Cells were permeabilized in 0.2% Triton X-100 and the nuclear contents stained with DAPI. Coverslips were mounted with fluorescent mounting medium (DAKO). The cellular distribution of green fluorescence was determined in dual fluorescent cells using a Leica epifluorescent microscope.\nReintroducing PTEN function in such cells induces translocation of FKHR to the nucleus eventually causing G1 arrest in PTEN-null cells (Nakamura et al 2000, supra)."}, "PC-3 cells": {"tested_on": "PC-3 cells", "assay": "MTT growth assay", "type": "cell-based, human", "details": "0.25 and 0.5 mM, 72 hour", "method": "MTT Growth Assays involved plating 1×10^3 PC-3 cells per well in a 96 well plate and allowing the cells to attach overnight. […] The controls for this experiment received an equal volume of LY294002 diluent (DMSO). MTT growth assays were then performed according to the manufacturer's protocol (Sigma)."}, "Histone H2A.X": {"tested_on": "Histone H2A.X", "details": "500 μM", "quoted_text": "5×10^5 PC-3 cells were plated in a 6 well dish and 24 hours later cells were treated with paclitaxel at 1 μg/mL or 10 μg/mL or selenate 500 μM (19 mg/kg) or selenite 500 μM (18 mg/kg) for the indicated times. Cells were then washed in PBS, lysed in ELB lysis buffer and whole cell lysates run on a SDS-PAGE gel and blotted and probed with the indicated antibodies. Phosphorylation of Histone H2AX occurs within minutes of DNA damage, typically via DNA double or single strand breaks and is a very sensitive readout of DNA damage.\nTo ascertain the differences between selenate, selenite and the taxane, paclitaxel in inducing DNA damage PC-3 cells were treated with these compounds for increasing time periods then lysed. The protein extracts were probed for phosphorylation of Histone H2A.X using a phosphorylation specific antibody."}, "β-tubulin": {"tested_on": "β-tubulin", "assay": "β-tubulin levels in treated PC-3 cell lysates", "type": "cell-based, human"}, "[3]": {"details": "at certain doses; cited from earlier work"}, "[4]": {"tested_on": "human prostate cancer PC-3 cells", "assay": "Cell toxicity by Trypan Blue Exclusion, selenate versus selenite", "details": "5 μM or 50 μM, 24 to 96 hours", "method": "5×10^3 human prostate cancer PC-3 cells were seeded in a 24-well dish and 8 hours later were treated with either 5 μM or 50 μM of selenate or selenite. The dose range of 5 μM or 50 μM is equivalent to 0.1 mg/kg to 1.25 mg/kg. Cells were harvested at 24, 48, 72 and 96 hours following the addition of selenate or selenite and the percentage of viable cells as assessed by Trypan Blue staining was determined.\nAll cells in the tissue culture wells were then harvested sequentially at periods between 24 and 96 hours following addition of the treatments. The percentage of viable cells were then determined using the Trypan Blue exclusion assay."}},
  "data": [
    {"compound": "C[Se](=O)O", "note": "[Methylseleninic acid]", "values": [
      {"measurement": "apoptosis and phosphorylation of Akt in DU-145 cells", "setting": "[1]; 3 μM", "result": "not associated with apoptosis or with decreased phosphorylation of Akt"},
      {"measurement": "G1 arrest and apoptosis markers in DU145 cells", "setting": "[1]", "result": "induces G1 arrest, as well as DNA fragmentation and caspase mediated cleavage of PARP"},
      {"measurement": "G1 arrest of DU-145 cells", "setting": "[1]; doses as low as 3 μM", "result": "induced G1 arrest"},
      {"measurement": "Akt activation in DU-145 cells", "setting": "[1]; higher doses of 5 μM", "result": "dose-dependent decline in Akt activation"},
      {"measurement": "apoptosis in DU-145 cells", "setting": "[1]; higher doses of 5 μM", "result": "initiation of caspase-mediated apoptosis"}
    ]},
    {"compound": "N[C@@H](C[SeH])C(=O)O", "note": "[Selenocysteine]", "values": [
      {"measurement": "activation of Akt (phosphorylated Akt relative to total Akt)", "setting": "Akt", "result": "induce activation of Akt above control (con) levels"}
    ]},
    {"compound": "O=[Se](O)O", "note": "[Selenous acid]", "values": [
      {"measurement": "activation of Akt (phosphorylated Akt relative to total Akt)", "setting": "Akt", "result": "induce activation of Akt above control (con) levels"}
    ]},
    {"compound": "O=[Se]=O", "note": "[selenium dioxide]", "values": [
      {"measurement": "activation of Akt (phosphorylated Akt relative to total Akt)", "setting": "Akt", "result": "induce activation of Akt above control (con) levels"}
    ]},
    {"compound": "S=[Se]=S", "note": "[selenium sulfide]", "values": [
      {"measurement": "activation of Akt (phosphorylated Akt relative to total Akt)", "setting": "Akt", "result": "induce activation of Akt above control (con) levels"}
    ]},
    {"compound": "C[Se]CC[C@H](N)C(=O)O", "note": "[selenomethionine, reference compound]", "values": [
      {"measurement": "p27KIP1 total protein levels, inorganic versus organic selenium", "setting": "[2]", "result": "little effect"},
      {"measurement": "relocalization of GFP-FKHR from the cytoplasm to the nucleus", "setting": "GFP-FKHR fusion protein", "result": "unable to induce relocalization"},
      {"measurement": "PC-3 cell proliferation (MTT proliferative index)", "setting": "PC-3 cells", "result": "less effective in reducing cell proliferation"}
    ]},
    {"compound": "O=[Se](O)O", "note": "[sodium selenite]", "values": [
      {"measurement": "time of treatment to DNA damage", "setting": "Histone H2A.X", "result": "≤ 30", "unit": "min"},
      {"measurement": "cellular tubulin degradation", "setting": "β-tubulin; 100 μM, 250 μM or 500 μM, 16 hours", "result": "marked degradation"},
      {"measurement": "β-tubulin levels", "setting": "β-tubulin; 500 μM, increasing time periods", "result": "concomitant decrease in β-tubulin levels"},
      {"measurement": "toxicity to cells", "setting": "[3]", "result": "toxic to cells"},
      {"measurement": "cytotoxic effect (Trypan Blue exclusion)", "setting": "[4]", "result": "cytotoxic effect"}
    ]}
  ]
}
